Results: patent US20230234943A1, “TREX1 INHIBITORS AND USES THEREOF” (Tempest Therapeutics, Inc., priority 2020, published 2023)

Target: T1, Human TREX1 enzyme (amino acids 1-242) (Homo sapiens, UniProt Q9NSU2)
T1 construct: Human TREX1 enzyme (amino acids 1-242)
T1 sequence (Q9NSU2 1-242): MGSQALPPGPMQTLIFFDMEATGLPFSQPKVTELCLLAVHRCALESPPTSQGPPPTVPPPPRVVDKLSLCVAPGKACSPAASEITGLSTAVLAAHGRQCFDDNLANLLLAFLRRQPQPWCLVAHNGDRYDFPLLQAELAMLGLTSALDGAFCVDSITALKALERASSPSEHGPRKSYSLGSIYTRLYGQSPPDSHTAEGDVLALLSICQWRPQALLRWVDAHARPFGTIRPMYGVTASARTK
Assay: Human TREX1 enzymatic assay with dsDNA native oligonucleotide (Picogreen fluorescence)
Type: biochemical
Conditions: 2 mM dithiothreitol in assay buffer; 50 nM dsDNA oligonucleotide; 30 min preincubation at 25° C.; read-out: TREX1/Human + DTT IC50 AVG
Summary of the method: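 Remaining dsDNA quantified by Picogreen fluorescence after EDTA quench, with no-enzyme and DMSO wells as controls. Reactions used 50 nM annealed oligonucleotide for 5–15 min at 25 °C, after a 30 min compound–enzyme preincubation (0.8–0.16 nM TREX1; 2% DMSO; pH 7.7 Tris, 5 mM MgCl2).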

IC50	Compound
> 100 µM	COc1cc(-c2nc3cc(N4CCN(C(=O)c5cccc(C(F)(F)F)c5)CC4)ccc3[nH]2)cc(O)c1O [Example 103, (4-(2-(3,4-dihydroxy-5-methoxyphenyl)-1H-benzo[d]imidazol-5-yl)piperazin-1-yl)(3-(trifluoromethyl)phenyl)methanone]
> 100 µM	COc1cc(-c2nc3cc(N4CCN(C(=O)c5ccccc5C(F)(F)F)CC4)ccc3[nH]2)cc(O)c1O [Example 104, (4-(2-(3,4-dihydroxy-5-methoxyphenyl)-1H-benzo[d]imidazol-5-yl)piperazin-1-yl)(2-(trifluoromethyl)phenyl)methanone]
> 100 µM	COc1cc(-c2nc3cc(N4CCN(C(=O)c5ccccc5-c5ccccc5)CC4)ccc3[nH]2)cc(O)c1O [Example 105, [1,1′-biphenyl]-2-yl(4-(2-(3,4-dihydroxy-5-methoxyphenyl)-1H-benzo[d]imidazol-5-yl)piperazin-1-yl)methanone]
1 to 10 µM	COc1cc(-c2nc3ccc(N4CCN(C(=O)c5ccccc5)CC4)cc3n2C2CCOC2)cc(O)c1O (stereo not shown) [Example 106, (4-(2-(3,4-dihydroxy-5-methoxyphenyl)-1-(tetrahydrofuran-3-yl)-1H-benzo[d]imidazol-6-yl)piperazin-1-yl)(phenyl)methanone]
1 to 10 µM	COc1cc(-c2nc3cc(N4CCN(C)C(=O)C4)ccc3[nH]2)cc(O)c1O [Example 108, 4-(2-(3,4-dihydroxy-5-methoxyphenyl)-1H-benzo[d]imidazol-5-yl)-1-methylpiperazin-2-one]
10 to 100 µM	COc1cc(-c2nc3cc(C4CCN(C(C)=O)CC4)ccc3[nH]2)cc(O)c1O [Example 109, 1-(4-(2-(3,4-dihydroxy-5-methoxyphenyl)-1H-benzo[d]imidazol-5-yl)piperidin-1-yl)ethanone]
> 100 µM	COc1cc(-c2nc3c(N4CCOCC4)nccc3[nH]2)cc(O)c1O [Example 110, 3-methoxy-5-(4-morpholino-1H-imidazo[4,5-c]pyridin-2-yl)benzene-1,2-diol]
1 to 10 µM	COc1cc(-c2nc3cc(N4CCN(C(=O)c5ccccc5Cl)CC4)ccc3[nH]2)cc(O)c1O [Example 111, (2-chlorophenyl)(4-(2-(3,4-dihydroxy-5-methoxyphenyl)-1H-benzo[d]imidazol-5-yl)piperazin-1-yl)methanone]
> 100 µM	COc1cc(-c2nc3cc(N4CCN(C(=O)c5ccc(-c6ccccc6)cc5)CC4)ccc3[nH]2)cc(O)c1O [Example 112, [1,1′-biphenyl]-4-yl(4-(2-(3,4-dihydroxy-5-methoxyphenyl)-1H-benzo[d]imidazol-5-yl)piperazin-1-yl)methanone]
> 100 µM	COc1cc(-c2nc3cc(N4CCN(C(=O)c5cccc(-c6ccccc6)c5)CC4)ccc3[nH]2)cc(O)c1O [Example 113, [1,1′-biphenyl]-3-yl(4-(2-(3,4-dihydroxy-5-methoxyphenyl)-1H-benzo[d]imidazol-5-yl)piperazin-1-yl)methanone]
10 to 100 µM	O=C(O)c1ccc(-c2nc3cc(N4CCC4)ccc3[nH]2)cc1O [Example 114, 4-(5-(azetidin-1-yl)-1H-benzo[d]imidazol-2-yl)-2-hydroxybenzoic acid]
10 to 100 µM	O=C(O)c1cc(-c2nc3cc(N4CCC4)ccc3[nH]2)ccc1O [Example 115, 5-(5-(azetidin-1-yl)-1H-benzo[d]imidazol-2-yl)-2-hydroxybenzoic acid]
1 to 10 µM	COc1cc(-c2nc3cc(N4CCN(S(=O)(=O)C(C)C)CC4)ccc3[nH]2)cc(O)c1O [Example 116, 5-(5-(4-(isopropylsulfonyl)piperazin-1-yl)-1H-benzo[d]imidazol-2-yl)-3-methoxybenzene-1,2-diol]
10 to 100 µM	CS(=O)(=O)N1CCN(c2ccc3[nH]c(-c4ccc(C(=O)O)c(O)c4)nc3c2)CC1 [Example 117, 2-hydroxy-4-(5-(4-(methylsulfonyl)piperazin-1-yl)-1H-benzo[d]imidazol-2-yl)benzoic acid]
10 to 100 µM	O=C(O)c1ccc(-c2nc3cc(N4CCN(C(=O)c5ccccc5)CC4)ccc3[nH]2)cc1O [Example 118, 4-(5-(4-benzoylpiperazin-1-yl)-1H-benzo[d]imidazol-2-yl)-2-hydroxybenzoic acid]
10 to 100 µM	O=C(O)c1ccc(-c2nc3cc(N4CCN(c5cccnc5)CC4)ccc3[nH]2)cc1O [Example 119, 2-hydroxy-4-(5-(4-(pyridin-3-yl)piperazin-1-yl)-1H-benzo[d]imidazol-2-yl)benzoic acid]
10 to 100 µM	O=C(O)c1cc(F)c(-c2nc3ccncc3[nH]2)cc1O [Example 120, 5-fluoro-2-hydroxy-4-(3H-imidazo[4,5-c]pyridin-2-yl)benzoic acid]

IC50	Compound
> 100 µM	COc1cc(-c2nc3cc(N4CCN(C)C(C)(C)C4)ccc3[nH]2)cc(O)c1O [Example 121, 3-methoxy-5-(5-(3,3,4-trimethylpiperazin-1-yl)-1H-benzo[d]imidazol-2-yl)benzene-1,2-diol]
10 to 100 µM	COc1cc(-c2nc3cc(N4CC5(CN(CC(F)(F)F)C5)C4)ccc3[nH]2)cc(O)c1O [Example 122, 3-methoxy-5-(5-(6-(2,2,2-trifluoroethyl)-2,6-diazaspiro[3.3]heptan-2-yl)-1H-benzo[d]imidazol-2-yl)benzene-1,2-diol]
10 to 100 µM	COc1cc(-c2nc3cc(N4CCN(C(=O)c5cccc(Cl)c5)CC4)ccc3[nH]2)cc(O)c1O [Example 123, (3-chlorophenyl)(4-(2-(3,4-dihydroxy-5-methoxyphenyl)-1H-benzo[d]imidazol-5-yl)piperazin-1-yl)methanone]
1 to 10 µM	COc1cccc(C(=O)N2CCN(c3ccc4[nH]c(-c5cc(O)c(O)c(OC)c5)nc4c3)CC2)c1 [Example 124, (4-(2-(3,4-dihydroxy-5-methoxyphenyl)-1H-benzo[d]imidazol-5-yl)piperazin-1-yl)(3-methoxyphenyl)methanone]
> 100 µM	COc1cc(-c2nc3cc(N4CCN(C(=O)c5cc(C)cc(C)c5)CC4)ccc3[nH]2)cc(O)c1O [Example 125, (4-(2-(3,4-dihydroxy-5-methoxyphenyl)-1H-benzo[d]imidazol-5-yl)piperazin-1-yl)(3,5-dimethylphenyl)methanone]
> 100 µM	COc1cc(-c2nc3cc(N4CCN(C(=O)c5ccc(C(C)(C)C)cc5)CC4)ccc3[nH]2)cc(O)c1O [Example 126, (4-(tert-butyl)phenyl)(4-(2-(3,4-dihydroxy-5-methoxyphenyl)-1H-benzo[d]imidazol-5-yl)piperazin-1-yl)methanone]
10 to 100 µM	COc1cc(-c2nc3cc(N4CCN(C(=O)c5ccc(C(=O)O)cc5)CC4)ccc3[nH]2)cc(O)c1O [Example 127, 4-(4-(2-(3,4-dihydroxy-5-methoxyphenyl)-1H-benzo[d]imidazol-5-yl)piperazine-1-carbonyl)benzoic acid]
10 to 100 µM	COc1cc(-c2nc3cc(N4CCN(C(=O)CCCCN)CC4)ccc3n2COCC[Si](C)(C)C)cc(O)c1O [Example 128, 5-amino-1-(4-(2-(3,4-dihydroxy-5-methoxyphenyl)-1-((2-(trimethylsilyl)ethoxy)methyl)-1H-benzo[d]imidazol-5-yl)piperazin-1-yl)pentan-1-one]
1 to 10 µM	O=C(O)c1ccc(-c2nc3cc(N4CCC4)ccc3[nH]2)c(F)c1O [Example 129, 4-(5-(azetidin-1-yl)-1H-benzo[d]imidazol-2-yl)-3-fluoro-2-hydroxybenzoic acid]
10 to 100 µM	COc1cc(-c2nc3ccccc3n2C2COC2)c(C(F)(F)F)c(O)c1O [Example 130, 6-methoxy-4-(1-(oxetan-3-yl)-1H-benzo[d]imidazol-2-yl)-3-(trifluoromethyl)benzene-1,2-diol]
10 to 100 µM	COc1cc(-c2nc3cc(N4CCN(c5ccncc5)CC4)ccc3[nH]2)cc(O)c1O [Example 131, 3-methoxy-5-(5-(4-(pyridin-4-yl)piperazin-1-yl)-1H-benzo[d]imidazol-2-yl)benzene-1,2-diol]
10 to 100 µM	COc1cc(-c2nc3cc(N4CC5(CN(C(C)=O)C5)C4)ccc3[nH]2)cc(O)c1O [Example 132, 1-(6-(2-(3,4-dihydroxy-5-methoxyphenyl)-1H-benzo[d]imidazol-5-yl)-2,6-diazaspiro[3.3]heptan-2-yl)ethan-1-one]
> 100 µM	COc1cc(-c2nc3cc(N4CCN(C(=O)c5ccccc5C(C)(C)C)CC4)ccc3[nH]2)cc(O)c1O [Example 133, (2-(tert-butyl)phenyl)(4-(2-(3,4-dihydroxy-5-methoxyphenyl)-1H-benzo[d]imidazol-5-yl)piperazin-1-yl)methanone]
> 100 µM	COc1cc(-c2nc3cc(N4CCN(C(=O)c5cccc(C(C)(C)C)c5)CC4)ccc3[nH]2)cc(O)c1O [Example 134, (3-(tert-butyl)phenyl)(4-(2-(3,4-dihydroxy-5-methoxyphenyl)-1H-benzo[d]imidazol-5-yl)piperazin-1-yl)methanone]
1 to 10 µM	COc1cc(-c2nc3cc(N4[C@@H]5CC[C@H]4CN(C(=O)c4ccccc4)C5)ccc3[nH]2)cc(O)c1O [Example 135, ((1R,5S)-8-(2-(3,4-dihydroxy-5-methoxyphenyl)-1H-benzo[d]imidazol-5-yl)-3,8-diazabicyclo[3.2.1]octan-3-yl)(phenyl)methanone]
> 100 µM	COc1cc(-c2nc3cc(N4C[C@H]5CC[C@@H](C4)N5C(=O)c4ccccc4)ccc3[nH]2)cc(O)c1O [Example 136]
1 to 10 µM	COc1cc(-c2nc3cc(N4CCCC4)ccc3[nH]2)cc(O)c1O [Example 137, 3-methoxy-5-(5-(pyrrolidin-1-yl)-1H-benzo[d]imidazol-2-yl)benzene-1,2-diol]
